Measured values published in patent publication US9879308B2, “Apparatus for ex vivo microfluidic analysis of biologic samples” (The Charles Stark Draper Laboratory, Inc., priority 2012, dated 2018).
Where two headings read alike, the source gives them in different places.

What was measured:
[1] = tested on: patient-derived osteosarcoma xenograft; test: Treatment of patient-derived osteosarcoma xenograft mice in vivo (MRI tumor volume, H&E, cleaved-caspase 3); parameters: species or system mouse
Method: (§1) Xenograft mice bearing human osteosarcoma tumor were treated with vehicle, gemcitabine, MK-1775, or a combination of gemcitabine and MK-1775 for 15 days. Treatments were administered on day 1, 3, 8, and 10. FNAB samples were taken before (day 0) and at 6 and 24 hours after treatment. Cell extracts were prepared from the FNAB samples to assess expression levels of CDC2Y15, a target for MK-1775, by Western blot. After day 15, tumors were analyzed by T2-weighted MRIs and paraffin sections of tumors were prepared to assess microscopic features of cell death by H&E-staining and to assess levels of cleaved-caspase 3.
The symbol (*) indicates statistical significance (p<0.05).

CDC2Y15 = test: Western blot of CDC2Y15 expression in FNAB cell extracts from treated xenograft mice; parameters: species or system mouse; conditions: in vivo treatment; compared to vehicle and gemcitabine treatments; FIG. 7A column (a)
Method: as §1

[2] = tested on: FNAB osteosarcoma samples; test: Ex vivo treatment of FNAB osteosarcoma samples in microfluidic apparatus, LIVE/DEAD fluorescence staining; type: cell-based, human
Excerpt: Eight micro-scale fluidic apparatuses of the present technology were fabricated from soft photolithography and bonded onto glass coverslip slides. The apparatuses were sterilized by ethylene oxide (EtO) gas. Each fluidic apparatus included a single channel, and the center of the channel contained a series of seven free standing post, collectively called the retaining element, which were used to retain the FNBA osteosarcoma sample (see FIG. 3A). Fluid flows into the channel by an inlet port and out of the channel by an outlet port.
FNAB osteosarcoma samples were taken from xenograft mouse with patient-derived osteosarcoma using a 25-gauge needle. FNABs were processed and selected for viability by H&E staining procedures before use and individually loaded one into each retaining element and imaged by microscopy and measured for size (all FNABs assayed were ˜300 μm in diameter). […]
The fluidic apparatuses were connected to their respective syringe pumps. […] Media was collected every 24 hours and analyzed for caspase 3 and 7 and lactate dehydrogenase (LDH). […]
The FNAB samples were fully penetrated by drugs. Tumor cells were stained with HCS LIVE/DEAD® Green Kit (Life Technologies, Carlsband, Calif.) and images were obtained using inverted fluorescence microscope to assess dead (green) and alive (blue) cells.

[3] = tested on: tumor fragments obtained by FNAB from a patient-derived osteosarcoma xenograft model; type: in vitro ADME, human
Method: (§2) FIG. 8 provides an expanded view of an extracted ion chromatogram (XIC) from a potential metabolite highlighted against the background sample. Perfused fluid was collected from the fluidic apparatus as described in the above experiment performed with the FNAB samples (FIGS. 2A-C) to determine whether tumor-mediated drug processing and metabolism can be analyzed. Fluidic samples were prepared by filtration and analyzed by mass spectrometry.

[4] = tested on: FNAB osteosarcoma samples; test: Active caspase ELISA of perfused fluid from fluidic apparatus; type: cell-based, human; conditions: data not shown
Method: The fluidic apparatuses were connected to their respective syringe pumps. The FNAB samples were first primed with several passes of culture media. After priming, each FNAB sample was subject to constant laminar flow at 100 μl/hr for 72 hours with their respective treatment. Media was collected every 24 hours and analyzed for caspase 3 and 7 and lactate dehydrogenase (LDH).
as §2

[5] = compared to vehicle and gemcitabine treatments, FIG. 7A column (c)

Structure (SMILES) | apoptosis of the cancer cells, in vivo model ([1]; 15 days of treatment) | DNA staining of tumor sections [1, 5] | immunoreactivity to caspase 3 [1, 5] | tumor volume at day 15 ([1]; day 15, compared to vehicle and gemcitabine treatments, FIG. 7A column (b)) | cell death in vivo ([1]; patient-derived osteosarcoma xenograft mouse model, FIG. 7A) | expression levels of CDC2Y15 (CDC2Y15) | cell death in tumor fragments ex vivo ([2]; 1 μM MK-1775, 3 μM gemcitabine, 100 μl/hr for 72 hours, LIVE/DEAD stain, FIG. 7C) | apoptosis of the cancer cells, ex vivo model ([2]; 72 hour period) | drug metabolism by tumor fragments (mass spectrometry) ([3]; human) | cell death by active caspase ELISA [4] | drug metabolism by tumor fragments (mass spectrometry) [3]
C=CCn1c(=O)c2cnc(Nc3ccc(N4CCN(C)CC4)cc3)nc2n1-c1cccc(C(C)(C)O)n1 [MK-1775] | able to induce apoptosis | decreased DNA staining | high immunoreactivity to caspase 3 | reduced tumor volume | lead to cell death | reduces expression levels of CDC2Y15 | lead to cell death | able to induce apoptosis | metabolism of MK-1775 into its metabolized forms | increased cell death | –
Nc1ccn([C@@H]2O[C@H](CO)[C@@H](O)C2(F)F)c(=O)n1 [gemcitabine] | – | – | – | – | – | – | – | – | – | not | active metabolism of gemcitabine into its active form, triphosphate
